Data reported in US9326515B2, “Fungicidal 3-[(1,3-thiazol-4-ylmethoxyimino)(phenyl)methyl]-2-substituted-1,2,4-oxadiazol-5(2H)-one derivatives” (BAYER INTELLECTUAL PROPERTY GMBH, priority 2011, dated 2016).

Legend:
Phytophthora infestans = assay type: in vivo; settings: 100 ppm of active ingredient, spray on young tomato plants, inoculated one day after treatment, evaluated 7 days after inoculation
Plasmopara viticola = experiment: Example I: in vivo preventive test on Plasmopara viticola (grapevines); settings: 10 ppm of active ingredient, spray on young grapevine plants, inoculated after spray coating dried, evaluated 6 days after inoculation
Protocol: To produce a suitable preparation of active compound, 1 part by weight of active compound is mixed with the stated amounts of solvent and emulsifier, and the concentrate is diluted with water to the desired concentration.
To test for preventive activity, young plants are sprayed with the preparation of active compound at the stated rate of application. After the spray coating has dried on, the plants are inoculated with an aqueous spore suspension of Plasmopara viticola and then remain for 1 day in an incubation cabinet at approximately 20° C. and a relative atmospheric humidity of 100%. The plant is subsequently placed for 4 days in a greenhouse at approximately 21° C. and a relative atmospheric humidity of approximately 90%. The plants are then misted and placed for 1 day in an incubation cabinet.
The test is evaluated 6 days after the inoculation. 0% means an efficacy which corresponds to that of the untreated control, while an efficacy of 100% means that no disease is observed.

[1] = pH 2.7

Structure (SMILES) | Eff. % (Phytophthora infestans) | Eff. % (Plasmopara viticola) | LogP [1]
CCCCCCCC(=O)Nc1nc(CON=C(c2ccccc2)c2nc(=O)on2C)cs1 [Example 13] | 95% | 99% | 3.94
Cn1oc(=O)nc1C(=NOCc1csc(NC(=O)c2ccc(F)cc2)n1)c1ccccc1 [Example 91] |  |  | 3.00
COc1ccc(OC(=O)Nc2nc(CO/N=C(/c3ccccc3)c3nc(=O)on3C)cs2)cc1 [Example 97] |  |  | 2.94
Cn1oc(=O)nc1C(=NOCc1csc(NC(=O)OC(C)(C)C)n1)c1ccccc1 [Example 20] | 92% | 94% | 3.06
COc1cccc(C(=O)Nc2nc(CON=C(c3ccccc3)c3nc(=O)on3C)cs2)c1 [Example 71] |  |  | 2.98
CC(C)C(C)OC(=O)Nc1nc(CO/N=C(/c2ccccc2)c2nc(=O)on2C)cs1 (racemic) [Example 46] |  |  | 3.35
C=CCC(C)OC(=O)Nc1nc(CON=C(c2ccccc2)c2nc(=O)on2C)cs1 (centres unmarked) [Example 76] |  |  | 3.15
Cn1oc(=O)nc1C(=NOCc1csc(NC(=O)OCC#Cc2ccccc2)n1)c1ccccc1 [Example 73] |  |  | 3.44
CC(C)CC(=O)Nc1nc(CO/N=C(/c2ccccc2)c2nc(=O)on2C)cs1 [Example 62] |  |  | 2.75
CC(OC(=O)Nc1nc(CO/N=C(/c2ccccc2)c2nc(=O)on2C)cs1)C1CCCCC1 (racemic) [Example 56] |  |  | 4.31
CC=CCCCOC(=O)Nc1nc(CON=C(c2ccccc2)c2nc(=O)on2C)cs1 [Example 77] |  |  | 3.55
Cn1oc(=O)nc1C(=NOCc1csc(NC(=O)OCCCCC(F)(F)F)n1)c1ccccc1 [Example 82] |  |  | 3.27
Cn1oc(=O)nc1C(=NOCc1csc(NC(=O)OCCc2ccccc2)n1)c1ccccc1 [Example 14] | 95% | 99% | 3.35
Cn1oc(=O)nc1/C(=N\OCc1csc(NC(=O)CCC2CCCCC2)n1)c1ccccc1 [Example 41] |  |  | 3.92
CCC(C)(C)C(=O)Nc1nc(CON=C(c2ccccc2)c2nc(=O)on2C)cs1 [Example 87] |  |  | 3.13
Cn1oc(=O)nc1C(=NOCc1csc(NC(=O)C(C)(C)C)n1)c1ccccc1 [Example 3] | 84% |  | 2.84
CCCCC(=O)Nc1nc(CO/N=C(/c2ccccc2)c2nc(=O)on2C)cs1 [Example 60] |  |  | 2.80
Cn1oc(=O)nc1C(=NOCc1csc(NC(=O)COc2ccccc2)n1)c1ccccc1 [Example 8] | 95% | 97% | 2.98
Cc1ccc(C(=O)Nc2nc(CO/N=C(/c3ccccc3)c3nc(=O)on3C)cs2)cc1 [Example 48] |  |  | 3.17
Cc1cccc(C(=O)Nc2nc(CON=C(c3ccccc3)c3nc(=O)on3C)cs2)c1 [Example 68] |  |  | 3.19
Cn1oc(=O)nc1C(=NOCc1csc(NC(=O)OCCCC2CCCCC2)n1)c1ccccc1 [Example 83] |  |  | 4.71
Cn1oc(=O)nc1C(=NOCc1csc(NC(=O)OCCCC2CC2)n1)c1ccccc1 [Example 79] |  |  | 3.51
C=C(C)COC(=O)Nc1nc(CO/N=C(/c2ccccc2)c2nc(=O)on2C)cs1 [Example 94] |  |  | 2.92
CCn1oc(=O)nc1/C(=N\OCc1csc(NC(=O)OCCc2ccccc2)n1)c1ccccc1 [Example 37] |  |  | 3.55

Structure (SMILES) | Eff. % (Phytophthora infestans) | Eff. % (Plasmopara viticola) | LogP [1]
Cn1oc(=O)nc1C(=NOCc1csc(NC(=O)C2CCCCC2)n1)c1ccccc1 [Example 90] |  |  | 3.19
CCN(O)C(=N)/C(=N\OCc1csc(NC(=O)COc2ccccc2)n1)c1ccccc1 [Example V-1] |  |  | 2.42
Cn1oc(=O)nc1C(=NOCc1csc(NC(=O)Cc2cccs2)n1)c1ccccc1 [Example 75] |  |  | 2.71
CCCCCOC(=O)Nc1nc(CON=C(c2ccccc2)c2nc(=O)on2C)cs1 [Example 69] |  |  | 3.51
CC#CCOC(=O)Nc1nc(CO/N=C(/c2ccccc2)c2nc(=O)on2C)cs1 [Example 47] |  |  | 2.66
Cn1oc(=O)nc1C(=NOCc1csc(NC(=O)Oc2ccc(F)cc2)n1)c1ccccc1 [Example 5] |  |  | 3.02
Cn1oc(=O)nc1C(=NOCc1csc(NC(=O)OCCC2CC2)n1)c1ccccc1 [Example 78] |  |  | 3.15
CC(CC1CC1)OC(=O)Nc1nc(CON=C(c2ccccc2)c2nc(=O)on2C)cs1 (centres unmarked) [Example 80] |  |  | 3.42
Cn1oc(=O)nc1/C(=N\OCc1csc(NC(=O)OCCC2CCCC2)n1)c1ccccc1 [Example 52] |  |  | 3.96
Cn1oc(=O)nc1/C(=N\OCc1csc(NC(=O)OCC(C)(C)C)n1)c1ccccc1 [Example 61] |  |  | 3.39
Cn1oc(=O)nc1C(=NOCc1csc(NC(=O)Cc2ccccc2)n1)c1ccccc1 [Example 65] |  |  | 2.82
COc1cccc(/C(=N/OCc2csc(NC(=O)C(C)(C)Oc3ccccc3)n2)c2nc(=O)on2C)c1 [Example 36] |  |  | 3.63
CCCCC(C)C(=O)Nc1nc(CO/N=C(/c2ccccc2)c2nc(=O)on2C)cs1 (racemic) [Example 42] |  |  | 3.42
Cn1oc(=O)nc1C(=NOCc1csc(NC(=O)c2ccccc2)n1)c1ccccc1 [Example 15] | 92% |  | 2.88
CC(C(=O)Nc1nc(CO/N=C(/c2ccccc2)c2nc(=O)on2C)cs1)c1ccccc1 (racemic) [Example 49] |  |  | 3.15
Cn1oc(=O)nc1C(=NOCc1csc(NC(=O)OCC2CC2)n1)c1ccccc1 [Example 88] |  |  | 2.84
COc1cccc(C(=NOCc2csc(NC(=O)CC3CCCC3)n2)c2nc(=O)on2C)c1 [Example 86] |  |  | 3.25
Cn1oc(=O)nc1/C(=N\OCc1csc(NC(=O)CCc2ccccc2)n1)c1ccccc1 [Example 57] |  |  | 3.09
CCCCC(CC)COC(=O)Nc1nc(CON=C(c2ccccc2)c2nc(=O)on2C)cs1 (centres unmarked) [Example 7] | 85% |  | 4.56
Cn1oc(=O)nc1C(=NOCc1csc(NC(=O)C2(C)CCCCC2)n1)c1ccccc1 [Example 74] |  |  | 3.58
CC#CCC(C)OC(=O)Nc1nc(CON=C(c2ccccc2)c2nc(=O)on2C)cs1 (centres unmarked) [Example 81] |  |  | 3.06
CC(OC(=O)Nc1nc(CO/N=C(/c2ccccc2)c2nc(=O)on2C)cs1)C1CCCC1 (centres unmarked) [Example 95] |  |  | 3.85
CCn1oc(=O)nc1/C(=N\OCc1csc(NC(=O)COc2ccccc2)n1)c1ccccc1 [Example 38] |  |  | 3.17
Cn1oc(=O)nc1/C(=N\OCc1csc(NC(=O)C2CCCC2)n1)c1ccccc1 [Example 58] |  |  | 2.88

Structure (SMILES) | Eff. % (Phytophthora infestans) | Eff. % (Plasmopara viticola) | LogP [1]
CCC#CCOC(=O)Nc1nc(CON=C(c2ccccc2)c2nc(=O)on2C)cs1 [Example 72] |  |  | 2.98
Cn1oc(=O)nc1/C(=N\OCc1csc(NC(=O)OCCCCl)n1)c1ccccc1 [Example 93] |  |  | 2.80
Cn1oc(=O)nc1/C(=N\OCc1csc(NC(=O)OCCC2CCCCC2)n1)c1ccccc1 [Example 45] |  |  | 4.21
COc1cccc(C(=NOCc2csc(NC(=O)OCCc3ccccc3)n2)c2nc(=O)on2C)c1 [Example 85] |  |  | 3.39
Cn1oc(=O)nc1/C(=N\OCc1csc(NC(=O)OC(C)(C)C(Cl)(Cl)Cl)n1)c1ccccc1 [Example 51] |  |  | 3.96
CC(C)[C@@H]1CC[C@@H](C)C[C@H]1OC(=O)Nc1nc(CO/N=C(/c2ccccc2)c2nc(=O)on2C)cs1 [Example 50] |  |  | 4.91
COCCn1oc(=O)nc1/C(=N\OCc1csc(NC(=O)OCCc2ccccc2)n1)c1ccccc1 [Example 39] |  |  | 3.55
COc1cccc(C(=NOCc2csc(NC(=O)COc3ccccc3)n2)c2nc(=O)on2C)c1 [Example 84] |  |  | 3.02
C#CCCCC(=O)Nc1nc(CO/N=C(/c2ccccc2)c2nc(=O)on2C)cs1 [Example 40] |  |  | 2.54
CC#CCCOC(=O)Nc1nc(CO/N=C(/c2ccccc2)c2nc(=O)on2C)cs1 [Example 54] |  |  | 2.80
Cn1oc(=O)nc1/C(=N\OCc1csc(NC(=O)CCC2CCCC2)n1)c1ccccc1 [Example 43] |  |  | 3.58
Cn1oc(=O)nc1C(=NOCc1csc(NC(=O)OCC2CCCCC2)n1)c1ccccc1 [Example 63] |  |  | 3.92
Cn1oc(=O)nc1C(=NOCc1csc(NC(=O)OCCCC2CCCC2)n1)c1ccccc1 [Example 66] |  |  | 4.36
CC(OC(=O)Nc1nc(CON=C(c2ccccc2)c2nc(=O)on2C)cs1)C(C)(C)C (centres unmarked) [Example 92] |  |  | 3.65
Cn1oc(=O)nc1C(=NOCc1csc(NC(=O)c2csc3ccccc23)n1)c1ccccc1 [Example 89] |  |  | 3.57
CCCCOC(=O)Nc1nc(CO/N=C(/c2ccccc2)c2nc(=O)on2C)cs1 [Example 59] |  |  | 3.13
Cn1oc(=O)nc1C(=NOCc1csc(NC(=O)OC2CC3CCC2C3)n1)c1ccccc1 (centres unmarked) [Example 6] | 90% |  | 3.60
Cn1oc(=O)nc1/C(=N\OCc1csc(NC(=O)CC2CCCC2)n1)c1ccccc1 [Example 53] |  |  | 3.19
C=CCCCCOC(=O)Nc1nc(CON=C(c2ccccc2)c2nc(=O)on2C)cs1 [Example 64] |  |  | 3.51
Cn1oc(=O)nc1/C(=N\OCc1csc(NC(=O)OCc2ccccc2)n1)c1ccccc1 [Example 96] |  |  | 3.17
CC(C)CCOC(=O)Nc1nc(CO/N=C(/c2ccccc2)c2nc(=O)on2C)cs1 [Example 55] |  |  | 3.44
COc1ccc(CC(=O)Nc2nc(CON=C(c3ccccc3)c3nc(=O)on3C)cs2)cc1 [Example 70] |  |  | 2.80
C#CCOC(=O)Nc1nc(CON=C(c2ccccc2)c2nc(=O)on2C)cs1 [Example 67] |  |  | 2.49
